Assay results from patent publication US8883743B2, “Methods for treating obesity employing an SGLT2 inhibitor” (AstraZeneca AB, priority 2007, dated 2014).

How the values were obtained:
[1] = Chronic weight loss study in diet-induced obese (DIO) rats; assay type: in vivo, rat
Procedure: DIO rats were sorted into treatment groups based on body weight, total kilocalories consumed, and body composition (via echo MRI). […] To assess the importance of compensatory over-eating in drug-treated animals, a subgroup of rats that received 5 mg/kg of dapagliflozin was restricted to the food intake of the placebo group. Body weight and the weight of both diets were determined daily. Respiratory quotient data were obtained on days 2 and 15 of the study, echo MRI was obtained on day 22, and blood was collected for a fasting clinical chemistry tests on day 27.
Percent weight changes were calculated as […].
The weight loss study with Compound IIIA (0.1, 0.3, 1, and 3 mg/kg) was performed using the same methods as the Dapagliflozin study.

[2] = Procedure: Patients with type 2 diabetes were treated with placebo, 5 mg dapagliflozin propylene glycol, 25 mg dapagliflozin propylene glycol, or 100 mg dapagliflozin propylene glycol.
[3] = 12-week once-daily oral treatment of treatment naive type II diabetes mellitus patients (glucosuria, body weight, BMI); assay type: in vivo, human; conditions: type II diabetic patients, each dose group, 12 weeks
Procedure: Treatment naive type II diabetes mellitus patients, n=389, with inadequate blood glycemic control and low mean glucosuria at baseline were given once-daily oral treatments with dapagliflozin (2.5, 5, 10, 20, or 50 mgs), metformin XR® (750 mg titrated to 1500 mgs), or placebo over 12-weeks.

| Compound | weight loss ([1]; DIO rats, 0.1, 0.3, 1 and 3 mg/kg daily over 25 days (FIG. 5)) | glucosuric effects: loss of calories in the urine (glucose excretion/day) ([2]; healthy subjects, single doses 5, 20, 50 or 100 mg, indirect comparison versus GSK 869,682 (FIG. 1)) | 24-hour urine glucose excretion compared to placebo ([2]; subjects with type 2 diabetes, 5 mg, 25 mg and 100 mg, 14-day study (FIG. 2)) | weight loss when compound-induced overeating was prevented (pair fed to vehicle group) ([1]; DIO rats, 5 mg/kg subgroup restricted to food intake of placebo group (FIG. 4)) | weight loss versus vehicle ([1]; DIO rats, oral 0.5, 1 and 5 mpk daily over 25 days, p<0.05 (FIG. 4)) | proportion of patients achieving a 5% weight reduction versus placebo [3] |
| --- | --- | --- | --- | --- | --- | --- |
| CCc1ccc(Cc2cc([C@@H]3O[C@H](CO)[C@@H](O)[C@H](O)[C@H]3O)ccc2Cl)cc1 [Compound IIIA, (2S,3R,4R,5S,6R)-2-(4-chloro-3-(4-ethylbenzyl)phenyl)-6-(hydroxymethyl)tetrahydro-2H-pyran-3,4,5-triol] | significant weight loss in diet-induced obese rats in a dose proportional manner |  |  |  |  |  |
| CCOc1ccc(Cc2cc([C@@H]3O[C@H](CO)[C@@H](O)[C@H](O)[C@H]3O)ccc2Cl)cc1 [Dapagliflozin-PGS, dapagliflozin propylene glycol hydrate] |  | significant loss of calories in the urine | significantly higher urine glucose excretion | weight loss was greater | significant weight loss | higher proportion |
